According to article PMC10342533, “Novel Tetrazole Derivatives Targeting Tubulin Endowed with Antiproliferative Activity against Glioblastoma Cells” (International Journal of Molecular Sciences, 2023):
Several values for one entry are separate records, joined by “and”; a condition that tells them apart may be missing. Equal values may be shown once.

Experiments:
[1] = test system: HeLa (cervix epithelioid carcinoma); test: Cell growth inhibition, MTT assay, HeLa; type: cell-based; conditions: Homo sapiens
Protocol: (§1) The ability of the synthesized compounds to inhibit the cell proliferation of human cancer cell lines was assayed by measuring cell viability through the use of the MTT method 72 h after treatment. For this purpose, representative cell lines of the most frequent kinds of cancer were selected, including the following: HeLa (cervix epithelioid carcinoma), MCF7 (breast adenocarcinoma), U87 MG (glioblastoma), T98G (temozolomide resistant glioblastoma), HepG2 (hepatocellular carcinoma), HCT8 (colorectal carcinoma), and HT-29 (colon adenocarcinoma).
(§2) The cell lines were obtained from ATTC (Manassas, VA, USA). […] The cells were periodically tested for Mycoplasma infection by using a MycoAlert kit (Lonza, Norwest, Australia), and only Mycoplasma-free cells were used in the experiments.
(§3) Then, every compound was added (10 µL/well) to a final concentration of 10 µM. Untreated cells were used as negative controls. The antiproliferative activity of compounds was measured 72 h after drug exposure through the MTT assay. […] For this purpose, compounds were used at different concentrations, ranging from 10^−10 to 10^−2 M. Measurements were performed in triplicate, and each experiment was repeated three times. The IC50 values were determined using Origin software (version 9.6, OriginLab, Washington, DC, USA).

[2] = test system: T98G (temozolomide resistant glioblastoma); test: Cell growth inhibition, MTT assay, T98G; type: cell-based; conditions: Homo sapiens
Protocol: as §1, §2, §3

[3] = molecular target: T1, microtubular protein isolated from calf brains (bovine brain tubulin) (Bos taurus, UniProt P81947+Q6B856); test: Tubulin polymerization inhibition (TPI); type: biochemical; conditions: in vitro tubulin polymerization, mean ± SD
T1 construct: from tissue; host or cells: calf (bovine) brain
T1 sequence (Q6B856 whole entry): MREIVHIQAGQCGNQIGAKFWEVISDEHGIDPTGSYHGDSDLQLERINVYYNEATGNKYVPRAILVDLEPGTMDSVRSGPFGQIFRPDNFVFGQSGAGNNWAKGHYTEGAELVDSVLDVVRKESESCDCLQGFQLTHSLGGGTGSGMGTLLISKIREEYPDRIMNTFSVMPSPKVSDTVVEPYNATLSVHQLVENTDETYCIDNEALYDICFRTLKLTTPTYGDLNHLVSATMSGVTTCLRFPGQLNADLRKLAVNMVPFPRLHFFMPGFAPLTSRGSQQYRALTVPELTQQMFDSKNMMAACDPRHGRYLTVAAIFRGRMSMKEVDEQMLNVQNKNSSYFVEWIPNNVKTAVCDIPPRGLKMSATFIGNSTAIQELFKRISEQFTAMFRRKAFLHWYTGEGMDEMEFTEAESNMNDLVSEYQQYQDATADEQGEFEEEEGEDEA
T1 sequence (P81947 whole entry): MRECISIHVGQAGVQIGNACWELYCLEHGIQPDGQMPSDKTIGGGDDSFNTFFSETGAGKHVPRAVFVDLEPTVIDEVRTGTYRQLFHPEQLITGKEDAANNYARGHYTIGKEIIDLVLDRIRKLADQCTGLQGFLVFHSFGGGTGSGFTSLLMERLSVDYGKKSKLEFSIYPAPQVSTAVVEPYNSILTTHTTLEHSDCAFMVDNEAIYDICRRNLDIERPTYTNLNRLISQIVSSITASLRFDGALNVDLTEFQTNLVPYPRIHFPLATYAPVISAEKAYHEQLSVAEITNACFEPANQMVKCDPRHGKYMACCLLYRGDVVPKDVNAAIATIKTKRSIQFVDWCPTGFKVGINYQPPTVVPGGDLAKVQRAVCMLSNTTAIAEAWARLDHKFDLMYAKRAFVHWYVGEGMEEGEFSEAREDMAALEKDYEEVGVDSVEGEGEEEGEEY
Protocol: We evaluated the capacity of the new synthesized compounds to inhibit the polymerization of microtubular protein isolated from calf brains. The assays were performed by taking absorbance measurements to quantify the amount of polymer mass formed in the presence (or absence; negative controls) of the compounds.
Bovine brain tubulin was isolated as previously described by following a modified version of the Shelanski method. The protein was stored at −80 °C, and its concentration was determined by employing the Bradford method before each use. […] Tubulin polymerization, caused when heating the samples, was accompanied by an increase in the absorbance (at 450 nm) of the sample that was monitored by using a Helios α spectrophotometer. […] Measurements were performed in triplicate in two independent experiments using microtubular proteins from different preparations.

[4] = test system: MCF7 cells; test: Cell cycle analysis by flow cytometry (PI), MCF7; type: cell-based, human; conditions: 100 nM
Protocol: To assess how tubulin polymerization inhibition and the effects on the microtubule network affect the cell cycle, flow cytometry experiments were performed on HeLa, MCF7, and U87 MG cells 24, 48, and 72 h after treatments with compounds 10, 12, and 14 at 100 nM using propidium iodide (PI) for DNA staining and untreated cells as the negative control.
HeLa, MCF7, or U87 MG cells were seeded in 6-well plates (8·10^4 cells/mL, 2 mL/well) and incubated in complete DMEM Medium (see above) at 37 °C and 5% CO2 atmosphere for 24 h. Then, the cells were treated with selected compounds (10, 12, or 14) at 100 nM, and untreated cells were used as negative controls. Cells were collected 24, 48, or 72 h following treatment and fixed overnight in ethanol/PBS (7:3) at 4 °C. After two washes with PBS, cells were suspended in PBS and incubated in darkness overnight with 0.2 mg/mL RNase A (Sigma-Aldrich, St. Louis, MO, USA), 50 µg/mL propidium iodide (Sigma-Aldrich, St. Louis, MO, USA), and Triton 10x at room temperature. A BD Accuri™ C6 Plus Flow Cytometer (BD Biosciences, Franklin Lakes, NJ, USA) cytometer was used to analyze the samples, and BD Accuri™ C6 Software (version 1.0.264.21) was used for data analysis.

[5] = test system: microtubule network of HeLa cells; test: Immunofluorescence confocal microscopy of microtubule network, HeLa; type: cell-based, human; conditions: 24 h, 100 nM, α-tubulin immunofluorescence
Protocol: To elucidate if the interaction of the compounds with tubulin inferred from the in vitro TPI experiments has consequences on cellular microtubules, we studied the effect of representative compounds on the microtubule network of HeLa, MCF7, and U87 MG cells 24 h after treatment via the use of immunofluorescence confocal microscopy through α-tubulin and nuclei labeling.
HeLa, MCF7, and U87 MG cells (8·10^4 cells/mL) were grown on 0.01% poly-L-lysine pre-coated square glass coverslips (22 mm^2), deposited on 6-well plates (1 coverslip/well), and incubated in complete DMEM medium (see above) at 37 °C and 5% CO2 atmosphere for 24 h. Then, the cells were incubated for 24 h in the presence or absence (negative controls) of selected compounds (10, 12, or 14) at 100 nM. After drug treatment incubation, medium was removed, and coverslips were washed three times with PBS, fixed with 4% formaldehyde in PBS for 10 min, permeabilized with 0.5% Triton X-100, (Sigma-Aldrich, St. Louis, MO, USA) in PBS for 90 s at 4 °C, blocked with 10% BSA in PBS for 30 min, and washed with PBS four times. The coverslips were incubated for 1 h with anti-α-tubulin mouse monoclonal antibody (Sigma-Aldrich, St. Louis, MO, USA), diluted 1:200 in PBS containing 3% BSA, washed four times with PBS, and then incubated in darkness with the fluorescent secondary antibody Alexa Fluor 488 goat anti-mouse IgG (Molecular Probes, Invitrogen, Eugenen, OR, USA) and diluted 1:400 in PBS containing 1% BSA for 1.5 h. The coverslips were washed four times with PBS, and a drop of ProLong™ Gold Antifade Mountant containing DAPI (ThermoFisher, Waltham, MA, USA) was added for cell nuclei staining. The samples were analyzed via confocal microscopy, which was performed by using a LEICA SP5 microscope DMI-6000V model coupled to a LEICA LAS AF software computer.

`CSc1cc(-c2nnnn2-c2ccc3c(ccn3C)c2)cc(Cl)n1` [Compound 10, 5-(5-(2-chloro-6-(methylsulfanyl)pyridin-4-yl)-1H-tetrazol-1-yl)-1-methyl-1H-indole] showed an IC50 ([1]; 72 h after drug exposure) of 39 nM, an IC50 ([1]; mean ± SD, Table S1) of 39.3 ± 0.2 nM and an IC50 ([2]; 72 h, 72 h after drug exposure) of 25 nM. It also gave an IC50 [3] of 1500 ± 100 nM, a G0/G1 population ([4]; MCF7, 24 h) of 22.5 % Cells and a G2/M population ([4]; MCF7, 24 h) of 65.8 % Cells. It also gave a S population ([4]; MCF7, 24 h) of 3.9 % Cells, a SubG0/G1 population ([4]; MCF7, 24 h) of 7.7 % Cells and a G0/G1 population ([4]; MCF7, 48 h) of 16.9 % Cells. The G2/M population ([4]; MCF7, 48 h) was 58.1 % Cells, the S population ([4]; MCF7, 48 h) was 4.6 % Cells and the SubG0/G1 population ([4]; MCF7, 48 h) was 20.4 % Cells. The G0/G1 population ([4]; MCF7, 72 h) was 13.7 % Cells, the G2/M population ([4]; MCF7, 72 h) was 54.8 % Cells and the S population ([4]; MCF7, 72 h) was 4.4 % Cells. The SubG0/G1 population ([4]; MCF7, 72 h) was 27 % Cells and 27.2 % Cells and the “effect on microtubule network” value [5] was “severe microtubule network disruption”.

Work on `Cn1cc(C=O)c2cc(-n3nnnc3-c3cc(Cl)nc(Cl)c3)ccc21` [Compound 12, 5-(5-(2,6-dichloropyridin-4-yl)-1H-tetrazol-1-yl)-1-methyl-1H-indole-3-carbaldehyde] yielded an IC50 ([1]; 72 h after drug exposure) of 36 nM, an IC50 ([1]; mean ± SD, Table S1) of 36.4 ± 0.4 nM and an IC50 ([2]; 72 h, 72 h after drug exposure) of 26 nM. The IC50 ([2]; mean ± SD, Table S1) was 26.2 ± 0.2 nM, the IC50 [3] was 1300 ± 100 nM and the G0/G1 population ([4]; MCF7, 24 h) was 19.4 % Cells. The G2/M population ([4]; MCF7, 24 h) was 68.6 % Cells, the S population ([4]; MCF7, 24 h) was 7.0 % Cells and the SubG0/G1 population ([4]; MCF7, 24 h) was 5.2 % Cells. It also gave a G0/G1 population ([4]; MCF7, 48 h) of 16.4 % Cells, a G2/M population ([4]; MCF7, 48 h) of 62.9 % Cells and a S population ([4]; MCF7, 48 h) of 7.9 % Cells. The SubG0/G1 population ([4]; MCF7, 48 h) was 13.1 % Cells, the G0/G1 population ([4]; MCF7, 72 h) was 15.0 % Cells and the G2/M population ([4]; MCF7, 72 h) was 59.1 % Cells. The S population ([4]; MCF7, 72 h) was 10.8 % Cells, the SubG0/G1 population ([4]; MCF7, 72 h) was 15 % Cells and 15.5 % Cells and the “effect on microtubule network” value [5] was “severe microtubule network disruption”.

`CSc1cc(-c2nnnn2-c2ccc3c(c2)c(C=O)cn3C)cc(Cl)n1` [Compound 14, 5-(5-(2-chloro-6-(methylsulfanyl)pyridin-4-yl)-1H-tetrazol-1-yl)-1-methyl-1H-indole-3-carbaldehyde] showed an IC50 ([1]; 72 h after drug exposure) of 24 nM, an IC50 ([1]; mean ± SD, Table S1) of 24.2 ± 0.1 nM and an IC50 ([2]; 72 h, 72 h after drug exposure) of 19 nM. For the same molecule, the IC50 [3] was 800 ± 100 nM, the G0/G1 population ([4]; MCF7, 24 h) was 22.7 % Cells and the G2/M population ([4]; MCF7, 24 h) was 66.0 % Cells. For the same molecule, the S population ([4]; MCF7, 24 h) was 5.9 % Cells, the SubG0/G1 population ([4]; MCF7, 24 h) was 5.2 % Cells and the G0/G1 population ([4]; MCF7, 48 h) was 16.8 % Cells. It also gave a G2/M population ([4]; MCF7, 48 h) of 58.4 % Cells, a S population ([4]; MCF7, 48 h) of 6.9 % Cells and a SubG0/G1 population ([4]; MCF7, 48 h) of 17.9 % Cells. For the same molecule, the G0/G1 population ([4]; MCF7, 72 h) was 19.1 % Cells, the G2/M population ([4]; MCF7, 72 h) was 38.7 % Cells and the S population ([4]; MCF7, 72 h) was 8.1 % Cells. For the same molecule, the SubG0/G1 population ([4]; MCF7, 72 h) was 34 % Cells and 34.6 % Cells and the “effect on microtubule network” value [5] was “severe microtubule network disruption”.
